pIC50: −log10 of the molar value. “And” between values parts separate entries of the source, which are not always exact repeats. Identical values can stand only once.
Tested on: 876862-298-R-J1-PDC complex spheroids, viability % test/control
Assay: Anticancer human tumor 876862-298-R-J1-PDC patient-derived endometrial carcinoma cell line growth inhibition [CLK]
Settings: for viability, T/C: stronger effect = lower value
How it was run: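 Patient-derived tumor cells grown as complex spheroids with HUVEC endothelial cells and mesenchymal stem cells, treated with drug combinations. Concentrations descend in half-log steps from near clinical Cmax, or from 10 microM if Cmax unknown.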

[1] = curve of first compound, second compound 0.0316 µM
[2] = curve of first compound, second compound 0.1 µM
[3] = curve of first compound, second compound 0.316 µM
[4] = curve of first compound, second compound 1 µM
[5] = curve of first compound, second compound 3.16 µM
[6] = curve of first compound, second compound 10 µM
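Note: spheroids exposed to drugs for 7 days before readout.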
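Throughout, for viability, T/C: 100% = DMSO vehicle control wells.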

With `CC(Nc1ccc2c(c1)OCCn1cc(N3C(=O)OCC3C(F)F)nc1-2)C(N)=O` (stereo unspecified) the viability, T/C (compound 0.0316 µM) was 105% and 86.6%, the viability, T/C (compound 0.1 µM) was 81.8% and 90.4% and the viability, T/C (compound 0.316 µM) was 76.5% and 68.3%. The viability, T/C (compound 1 µM) was 72.2% and 51.6%, the viability, T/C (compound 3.16 µM) was 48.5% and 38.3% and the viability, T/C (compound 10 µM) was 27.7% and 22.8%. The pIC50 (curve of compound) was 5.55 and 5.92.

For `CCN1CCN(Cc2ccc(Nc3ncc(F)c(-c4cc(F)c5nc(C)n(C(C)C)c5c4)n3)nc2)CC1` + CNC(=O)c1ccc(Nc2nc(OC3CCCC3)c3c(-c4ccc5nc(C)oc5c4)c[nH]c3n2)c(OC)c1, the pIC50 [1] was less than 6.00, the pIC50 [2] was 7.22 and the pIC50 [3] was greater than 8.50. It also gave a pIC50 [4] greater than 8.50, a pIC50 [5] greater than 8.50 and a pIC50 [6] greater than 8.50. It also gave a viability, T/C (second compound 0.0316 µM, first compound 0.00316 µM) of 76.6%, a viability, T/C (second compound 0.0316 µM, first compound 0.01 µM) of 84.1% and a viability, T/C (second compound 0.0316 µM, first compound 0.0316 µM) of 69.4%. For the same molecule, the viability, T/C (second compound 0.0316 µM, first compound 0.1 µM) was 62.5%, the viability, T/C (second compound 0.0316 µM, first compound 0.316 µM) was 59% and the viability, T/C (second compound 0.0316 µM, first compound 1 µM) was 49%. The viability, T/C (second compound 0.1 µM, first compound 0.00316 µM) was 46%, the viability, T/C (second compound 0.1 µM, first compound 0.01 µM) was 51.9% and the viability, T/C (second compound 0.1 µM, first compound 0.0316 µM) was 57.1%. For the same molecule, the viability, T/C (second compound 0.1 µM, first compound 0.1 µM) was 47.8%, the viability, T/C (second compound 0.1 µM, first compound 0.316 µM) was 47.8% and the viability, T/C (second compound 0.1 µM, first compound 1 µM) was 49.5%. The viability, T/C (second compound 0.316 µM, first compound 0.00316 µM) was 47.2%, the viability, T/C (second compound 0.316 µM, first compound 0.01 µM) was 45.2% and the viability, T/C (second compound 0.316 µM, first compound 0.0316 µM) was 49.6%. For the same molecule, the viability, T/C (second compound 0.316 µM, first compound 0.1 µM) was 46.4%, the viability, T/C (second compound 0.316 µM, first compound 0.316 µM) was 45.1% and the viability, T/C (second compound 0.316 µM, first compound 1 µM) was 42.8%. The viability, T/C (second compound 1 µM, first compound 0.00316 µM) was 34.7%, the viability, T/C (second compound 1 µM, first compound 0.01 µM) was 40.4% and the viability, T/C (second compound 1 µM, first compound 0.0316 µM) was 41.1%. The viability, T/C (second compound 1 µM, first compound 0.1 µM) was 38.8%, the viability, T/C (second compound 1 µM, first compound 0.316 µM) was 31.8% and the viability, T/C (second compound 1 µM, first compound 1 µM) was 40.5%. It also gave a viability, T/C (second compound 3.16 µM, first compound 0.00316 µM) of 28%, a viability, T/C (second compound 3.16 µM, first compound 0.01 µM) of 29.1% and a viability, T/C (second compound 3.16 µM, first compound 0.0316 µM) of 27.1%. The viability, T/C (second compound 3.16 µM, first compound 0.1 µM) was 30%, the viability, T/C (second compound 3.16 µM, first compound 0.316 µM) was 30.1% and the viability, T/C (second compound 3.16 µM, first compound 1 µM) was 35.2%. The viability, T/C (second compound 10 µM, first compound 0.00316 µM) was 25.2%, the viability, T/C (second compound 10 µM, first compound 0.01 µM) was 25.6% and the viability, T/C (second compound 10 µM, first compound 0.0316 µM) was 22.7%. The viability, T/C (second compound 10 µM, first compound 0.1 µM) was 26.4%, the viability, T/C (second compound 10 µM, first compound 0.316 µM) was 30.1% and the viability, T/C (second compound 10 µM, first compound 1 µM) was 32.2%.

Work on `NC(=O)C(=Cn1cnc(-c2cc(C(F)(F)F)cc(C(F)(F)F)c2)n1)c1cncnc1` + CN1CCN(c2cc(C(=O)Nc3cc4cc(-c5cnn(C)c5)ccc4cn3)ccn2)CC1 yielded a pIC50 [1] of 7.53, a pIC50 [2] greater than 8.02 and a pIC50 [3] greater than 8.02. The pIC50 [4] was greater than 8.02, the pIC50 [5] was greater than 8.02 and the pIC50 [6] was greater than 8.02. It also gave a viability, T/C (second compound 0.0316 µM, first compound 0.00949 µM) of 67.5%, a viability, T/C (second compound 0.0316 µM, first compound 0.03 µM) of 49.3% and a viability, T/C (second compound 0.0316 µM, first compound 0.0949 µM) of 33%. It also gave a viability, T/C (second compound 0.0316 µM, first compound 0.3 µM) of 24.1%, a viability, T/C (second compound 0.0316 µM, first compound 0.949 µM) of 11.3% and a viability, T/C (second compound 0.0316 µM, first compound 3 µM) of 2.88%. For the same molecule, the viability, T/C (second compound 0.1 µM, first compound 0.00949 µM) was 38.5%, the viability, T/C (second compound 0.1 µM, first compound 0.03 µM) was 30.8% and the viability, T/C (second compound 0.1 µM, first compound 0.0949 µM) was 21.1%. The viability, T/C (second compound 0.1 µM, first compound 0.3 µM) was 4.49%, the viability, T/C (second compound 0.1 µM, first compound 0.949 µM) was 0.38% and the viability, T/C (second compound 0.1 µM, first compound 3 µM) was 0.99%. For the same molecule, the viability, T/C (second compound 0.316 µM, first compound 0.00949 µM) was 1.38%, the viability, T/C (second compound 0.316 µM, first compound 0.03 µM) was 0.32% and the viability, T/C (second compound 0.316 µM, first compound 0.0949 µM) was 0.86%. For the same molecule, the viability, T/C (second compound 0.316 µM, first compound 0.3 µM) was 0.98%, the viability, T/C (second compound 0.316 µM, first compound 0.949 µM) was 0.83% and the viability, T/C (second compound 0.316 µM, first compound 3 µM) was 1.69%. For the same molecule, the viability, T/C (second compound 1 µM, first compound 0.00949 µM) was 0.33%, the viability, T/C (second compound 1 µM, first compound 0.03 µM) was 0.27% and the viability, T/C (second compound 1 µM, first compound 0.0949 µM) was 0.22%. The viability, T/C (second compound 1 µM, first compound 0.3 µM) was 0.36%, the viability, T/C (second compound 1 µM, first compound 0.949 µM) was 0.45% and the viability, T/C (second compound 1 µM, first compound 3 µM) was 1.17%. For the same molecule, the viability, T/C (second compound 3.16 µM, first compound 0.00949 µM) was 0.3%, the viability, T/C (second compound 3.16 µM, first compound 0.03 µM) was 1.41% and the viability, T/C (second compound 3.16 µM, first compound 0.0949 µM) was 0.93%. The viability, T/C (second compound 3.16 µM, first compound 0.3 µM) was 0.82%, the viability, T/C (second compound 3.16 µM, first compound 0.949 µM) was 1.14% and the viability, T/C (second compound 3.16 µM, first compound 3 µM) was 1.63%. It also gave a viability, T/C (second compound 10 µM, first compound 0.00949 µM) of 1.33%, a viability, T/C (second compound 10 µM, first compound 0.03 µM) of 1.7% and a viability, T/C (second compound 10 µM, first compound 0.0949 µM) of 1.02%. It also gave a viability, T/C (second compound 10 µM, first compound 0.3 µM) of 1.05%, a viability, T/C (second compound 10 µM, first compound 0.949 µM) of 1.22% and a viability, T/C (second compound 10 µM, first compound 3 µM) of 1.15%.

Reference: PubChem BioAssay AID2060607 (Molecular Pharmacology Branch, DTP, NCI, 2025)
